# Data taken from US20140243218A1, “COMPOSITION FOR DIAGNOSING OVARIAN CANCER METASTASIS USING CPG METHYLATION STATUS OF GENE PROMOTER AND USE THEREOF” (Ewha University - Industry Collaboration Foundation, priority 2013, published 2014).
# Tested on: SK-OV-3 cell line
# Test: 5-aza-2′-deoxycytidine treatment of SK-OV-3 cell line, gene expression changes by qRT-PCR
# Type: cell-based, human
# Experimental: Human ovarian cancer cell line SK-OV-3 was purchased from American type culture collection (ATCC no. HTB-77) and cultured in a McCoy's 5a medium containing 10% FBS (fetal bovine serum), 100 U/mL penicillin and 100 μg/mL streptomycin.
# Total RNAs were extracted from SK-OV-3 cell line and the tumor tissues using an RNeasy mini kit (Qiagen), respectively. The extraction was performed according to manufacturer's instructions. The extracted total RNAs were quantified using a spectrophotometer, and RNA degradation was examined by electrophoresis in a 1% agarose gel.
# For cDNA synthesis, Superscript II reverse transcriptase (Invitrogen) was used. 1 μg of total RNA and 50 ng of oligo dT were denatured at 70° C. for 10 minutes, and then mixed with a reaction mixture containing 4 μl of 5×RT buffer, 2 μl of […], 4 μl of 2.5 mM dNTP mixture, 200 units of Superscript II reverse transcriptase and 10 units of RNase inhibitor to prepare 20 μl of the resulting reaction mixture, which was reacted at 25° C. for 10 minutes, at 42° C. for 50 minutes, and at 95° C. for 5 minutes to synthesize cDNA. This cDNA was diluted at 1:4, and 2 μl thereof was used as a template for qRT-PCR. In qRT-PCR, 20 μl of reaction mixture containing 2 μl of cDNA, 10 μl of SYBR Premix EX Taq (Takara Bio), 0.4 μl of Rox reference dye (50×, Takara Bio), and 200 nM of primers of each gene was reacted at 95° C. for 30 seconds, and then repeated for 40 cycles (at 95° C. for 3 seconds, and at 60° C. for 30 seconds) using an ABI 7500fast sequence detection system (Applied Biosystems) for amplification. The PCR products were reacted at 95° C. for 15 seconds, at 60° C. for 1 minute, and at 95° C. for 15 seconds to examine their specificity. 18S rRNA expression was used as an internal control, and expressions of AGR2, CA9, GABRP, IFITM1 and MUC13 genes were normalization using the 18S rRNA expression level by a ΔΔCT method. The sequences of the primers used are as follows.
# SK-OV-3 cell line was treated with a methylation inhibitor, 5-aza-2′-deoxycytidine (Sigma-Aldrich) at concentrations of 5 and 10 μM for 3 days, and then changes in AGR2, CA9, GABRP, IFITM1, and MUC13 gene expressions were measured by qRT-PCP.
# [1] = SK-OV-3 cells treated at 5 and 10 μM for 3 days, qRT-PCR normalized to 18S rRNA
structure (smiles),measurement,setting,value
Nc1ncn([C@H]2C[C@H](O)[C@@H](CO)O2)c(=O)n1 [5-aza-2′-deoxycytidine],increase in AGR2 gene expression,[1],about 2 fold
same,increase in CA9 gene expression,[1],about 3.4 fold
same,increase in GABRP gene expression,[1],about 1.8 fold
same,increase in IFITM1 gene expression,[1],about 1.7 fold
same,increase in MUC13 gene expression,[1],17.8 fold
same,"changes in expressions of the five genes (AGR2, CA9, GABRP, IFITM1, and MUC13)","SK-OV-3 cells, treatment for 3 days, result in words",increased expressions of the above genes were observed
